Results from US20080167387A1, “Microglia Facilitated Amyloidogenesis Assay” (Pfizer Inc., priority 2005, published 2008).
“Also recorded” adds a separate entry of the source. Read-outs that look alike come from different tables or passages of the source.

What was measured:
[1] = test system: amyloid formation from Aβ(1-42) peptides mediated by rat primary microglia; assay: Microglial-facilitated amyloidogenesis (MFA) assay, thioflavin S staining; format: cell-based; details: for amyloid formation mediated by microglia (thioflavin S staining) / amyloid formation mediated by rat primary microglia (thioflavin S staining): 37° C., 18 hours; for amyloid formation mediated by rat primary microglia (thioflavin S staining): 0.32 μM or 3.2 μM
Procedure: Primary rat brain microglia prepared as described in Example 1, were plated into Falcon black/clear 96 well plates at a concentration of 2×10^5 cells per well. The microglia were allowed to attach to cell walls after incubation at 37° C. for several hours to overnight. Fresh DMEM, with 10% fetal bovine serum, 0.1% penicillin/streptomycin and L-glutamine at 200 mM was used to replace the old media, while cells were gently washed to remove debris and dead cells.
[…] (The pre-treatment step is optional.) After pre-treatment, the candidate compound and Aβ (1-42) peptides were added to the pre-treated cells. The final concentration of Aβ (1-42) peptides was 10 μM. […] The final volume for each well was about 100 μl/well.
Aβ (1-42) peptides and Aβ (1-40) peptides, obtained from American Peptides of Sunnyvale, Calif., were stored at −20° C. Before use, Aβ (1-42) peptides were allowed to warm to room temperature for 15 minutes. To dissolve the Aβ (1-42) peptides, 200 μl of sterile water was added to the peptides. Each sample of peptides was vortexed to dissolve the peptides. Each sample was then diluted with 19 mls of MSFM. The final concentration of Aβ (1-42) peptides was 10 μM.
[…] After incubation, microglia were fixed with 100 μl of 95% ethanol and 5% acetic acid, which was directly poured into the media, and then incubated for 5 min. The media were poured out, and another 100 μl of fresh fixative having 95% ethanol and 5% acetic acid was added to the microglia for 10 min.
Fixed cells were stained with 100 μl thioflavin S solution, obtained from Sigma of St Louis, Mo. for approximately 3-5 min. Thioflavin S solution was 0.125 mg/ml in 40% ethanol, filtered through #1 Whatman filter paper before use.
Cells were washed twice, each time for 5 min, with 100 μl of 70% ethanol. After the washes, the cells were examined using an FITC filter under a fluorescent microscope. For each well, 3 images were collected and images were captured on a Zeiss Axiovert 100 M, with a 10× objective, using a digital CCD camera, and using MicroMax obtained from Roper Instruments of Tuscon, Ariz. Each treatment condition was run in triplicate, with 3 images collected per well to avoid areas with sparse cell growth and debris. Relative fluorescence intensity was measured.

rat primary microglia = assay: Microglial viability, MTT reaction product
Procedure: The viability of microglia was also determined by measuring the level of the tetrazolium salt 3,[4,5-dimethylthiazol-2-yl]-2,5-diphenyltetrazolium bromide (MTT) reaction product, using the method provided by Trevigen Inc. of Gaithersburg, Md.

[2] = test system: intracellular cAMP in rat primary microglia; assay: Level of intracellular cAMP in microglia; format: cell-based; details: 1 μM, about 20 minutes
Procedure: The effect on the level of intracellular cAMP in microglia by PGE2 was also investigated. Rat primary microglia were prepared using the methods described in Example 1, and were exposed to PGE2, at a concentration of 1 μM, for about 20 minutes. […] Microglial viability was investigated by measuring the MTT reaction product in microglia.

[3] = 32 nM-10 μM, one hour prior to 10 μM Aβ(1-42)
[4] = Example 15, prostaglandin E2 receptor agonists

Which “result in the MFA assay” value ([1]; conditions not given) does the source give for `CC[C@H](C)C(=O)O[C@H]1C[C@@H](C)C=C2C=C[C@H](C)[C@H](CC[C@@H]3C[C@@H](O)CC(=O)O3)[C@H]21` [lovastatin] here?
Its value is “very positively”.

For `CCCCc1ccc(CN(CCCCCCC(=O)O)S(C)(=O)=O)cc1` [Compound II], which “amyloid formation mediated by microglia (thioflavin S staining)” value (shortened to “amyloid formation mediated by microglia”) [1, 3] is on record?
Its value is “inhibited”.

Which “result in the MFA assay” value ([1]; conditions not given) does the source give for `CC[C@H](C)C(=O)O[C@H]1CCC=C2C=C[C@H](C)[C@H](CC[C@@H]3C[C@@H](O)CC(=O)O3)[C@H]21` [mevastatin] here?
The value was “very positively”.

Which cell-mediated amyloidogenesis ([1]; conditions not given) does the source give for `NC[C@H](O)c1ccc(O)c(O)c1` [Norepinephrine] here?
Its cell-mediated amyloidogenesis is “blocks”.

For `CS(=O)(=O)NC(=O)CCC/C=C\C[C@H]1C(=O)C[C@@H](O)[C@@H]1/C=C/[C@@H](O)COc1ccccc1` [sulprostone], which “microglial viability (MTT reaction product)” value (“microglial viability” for short) (rat primary microglia; [4]) is on record?
Its value is “neither butaprost nor sulprostone had any effect”.

How did the “microglial viability” value (rat primary microglia; Example 13, cAMP analogs) turn out when `CCCC(=O)Nc1ncnc2c1ncn2[C@@H]1O[C@@H]2COP(=O)(O)O[C@H]2[C@H]1OC(=O)CCC` [db-cAMP, dibutyryl-cAMP] was run?
The value was “neither db-cAMP nor 8-Br cAMP had any effect”.

And the “amyloid formation mediated by microglia” value ([1]; db-cAMP 8-80 μM, 8-Br cAMP 25-250 μM, from one hour prior to 10 μM Aβ(1-42))?
The value was “inhibited; also recorded: inhibition”.

Which “amyloid formation mediated by microglia” value [1, 3] does the source give for `CC(C)(C)c1ccc(CN(Cc2cccc(OCC(=O)O)c2)S(=O)(=O)c2cccnc2)cc1` [Compound I, (3-{[(4-tert-Butyl-benzyl)-(pyridine-3-sulfonyl)-amino]-methyl}-phenoxy)-acetic acid] here?
Its value is “inhibited”.

For `CC(C)c1c(C(=O)Nc2ccccc2)c(-c2ccccc2)c(-c2ccc(F)cc2)n1CC[C@@H](O)C[C@@H](O)CC(=O)O` [atorvastatin], which “result in the MFA assay” value ([1]; conditions not given) is on record?
The value was “very positively”.

With `CCCCC[C@H](O)/C=C/[C@H]1[C@H](O)CC(=O)[C@@H]1C/C=C\CCCC(=O)O` [PGE2, Prostaglandin E2] as the molecule, how does the “microglial viability” value (rat primary microglia) read?
Its value is “did not lead to any decrease”.

And the “level of intracellular cAMP in microglia” value [2]?
The value was “significantly increased”.

What about the “level of intracellular cAMP in microglia” value ([2]; listed as prostaglandin subtype EP2) of the same molecule?
The value was “increases”.

What about the “amyloid formation mediated by rat primary microglia (thioflavin S staining)” value ([1]; from one hour prior to 10 μM Aβ(1-42)) of the same molecule?
The value was “able to reduce”.

And the “amyloid formation mediated by rat primary microglia (thioflavin S staining)” value ([1]; from one hour prior to 10 μM Aβ(1-42), listed as prostaglandin EP2 sub-type)?
Its value is “inhibitory effect”.

Which results are given for `CCCC1([C@H](O)C/C=C/[C@H]2[C@H](O)CC(=O)[C@@H]2CCCCCCC(=O)OC)CCC1` [butaprost]?
microglial viability (MTT reaction product) (rat primary microglia; [4]): neither butaprost nor sulprostone had any effect; amyloid formation mediated by microglia (thioflavin S staining) [1, 3]: inhibit
